From patent publication US20060058376A1, “Composition having autonomic nerve modulating activity and method of use thereof” (SUNTORY LIMITED, priority 2003, published 2006)

What was measured:
Assay type in all cases: in vivo, human
[1] = test system: activity of autonomic nerves; assay: Heart rate variability power spectrum after smoking, double blind crossover study; conditions: for level of LF/HF change: 3 soft capsules each containing 10 mg of sesamin, nine male university students
Protocol: For nine male general university students, a test was carried out by a double blind, crossover study. Specifically, 3 soft capsules each containing 10 mg of sesamin and 3 placebo capsules were ingested, and the effect of the ingestion of the capsules on the activity of autonomic nerves was examined by a heart rate variability power spectrum method according to the method by Ue, H. et al. (Ue, H. et al., Ann. Noninvasive Electrocardiol., 5: 336-345 (2000)). After the ingestion of each sample, the students smoked one cigarette over a period of 4 min. Just before and after smoking, 10 min after smoking, and 30 min after smoking, electrocardiograms were taken, and sampling was carried out at 1024 Hz using 14-bit A/D conversion. Heart rate variability obtained from the electrocardiograms were processed by fast Fourier transform for frequency analysis to provide a heart rate variability power spectrum. In order to separate and quantify the heart rate variability spectrum, spectral integral values of two frequency bands (0.04 to 0.15 Hz and 0.15 to 0.4 Hz) are mainly determined. The spectral integral value of the low frequency (0.04 to 0.15 Hz) band was used as a measure of the activity of the sympathetic nerves and the activity of the parasympathetic nerves, while the spectral integral value of the high frequency (0.15 to 0.4 Hz) band was used as a measure of the activity of the parasympathetic nerves. Further, the value obtained by dividing the spectral integral value of the low frequency band by the spectral integral value of the high frequency band, that is, LF/HF, was used as a measure of the balance between the activity of the sympathetic nerves and the activity of the parasympathetic nerves (Akselrod S et al., Science 213: 220-222 (1981) and Moritani T et al., J sportmed Sci. 7: 31-39 (1993)). Further, the heart depolarization-repolarizaton time was measured by the QT interval.

QT interval = QT interval (heart depolarization-repolarization time) after smoking; conditions: FIG. 2; 3 x 10 mg sesamin capsules; placebo group significant prolongation (p<0.01)
Protocol: For nine male general university students, a test was carried out by a double blind, crossover study. Specifically, 3 soft capsules each containing 10 mg of sesamin and 3 placebo capsules were ingested, and the effect of the ingestion of the capsules on the activity of autonomic nerves was examined by a heart rate variability power spectrum method according to the method by Ue, H. et al. (Ue, H. et al., Ann. Noninvasive Electrocardiol., 5: 336-345 (2000)). After the ingestion of each sample, the students smoked one cigarette over a period of 4 min. Just before and after smoking, 10 min after smoking, and 30 min after smoking, electrocardiograms were taken, and sampling was carried out at 1024 Hz using 14-bit A/D conversion. Heart rate variability obtained from the electrocardiograms were processed by fast Fourier transform for frequency analysis to provide a heart rate variability power spectrum. In order to separate and quantify the heart rate variability spectrum, spectral integral values of two frequency bands (0.04 to 0.15 Hz and 0.15 to 0.4 Hz) are mainly determined. […] Further, the heart depolarization-repolarizaton time was measured by the QT interval.

[2] = test system: activity of autonomic nerves; assay: Heart rate variability power spectral analysis in women with symptoms of climacteric disorder, double-blind parallel comparison; conditions: 4 weeks, 3 soft capsules each containing 10 mg of sesamin; supine position; FIG. 3
Protocol: For 14 women who display symptoms of climacteric disorder, a test was carried out by double-blind parallel between-groups comparison. The subjects were randomly divided into two groups. Over a period of 4 weeks, 3 soft capsules each containing 10 mg of sesamin were ingested consecutively for one of the groups, and 3 placebo capsules were ingested consecutively for the other group. Before and after the ingestion of the sample, electrocardiograms were taken in a supine position, and the activity of the autonomic nerves was examined by heart rate variability power spectral analysis.

Question: How did the “level of LF/HF change” value ([1]; 30 min after smoking) turn out when `c1cc2c(cc1[C@H]1OC[C@H]3[C@@H]1CO[C@@H]3c1ccc3c(c1)OCO3)OCO2` [sesamin] was run?
Answer: −0.239

Question: And the “level of LF/HF change” value ([1]; just after smoking)?
Answer: +2.87

Question: And the “lowering in the activity of the parasympathetic nerves caused by smoking” value ([1]; vs placebo, p<0.05, FIG. 1, 3 x 10 mg sesamin capsules)?
Answer: significantly inhibited

Question: What about the “prolongation of QT interval caused by smoking” value (QT interval) of the same compound?
Answer: no significant prolongation

Question: What about the “overall autonomic nerve activity” value [2] of the same compound?
Answer: increased

Question: What about the parasympathetic nerve activity [2] of the same compound?
Answer: significantly increased

Question: And the sympathetic nerve activity [2]?
Answer: increased
